Measurements published in patent US20020049223A1, “Quinoline and naphthyridine carboxylic acid antibacterials” (priority 1999, published 2002).
Counter-ions that a name gives are not always drawn.

Assays:
Assay in all cases: Assay B: in vitro antibacterial activity, broth microdilution MIC (NCCLS)
Type in all cases: cell-based
[1] = system: Enterococcus faecalis PIU 1967; details: Table 2, Assay B, cation-adjusted Mueller Hinton broth, 35° C., 16 to 20 hr; code B = Enterococcus faecalis PIU 1967; unit assumed
Description: (§1) Assay B. Determination of Biological Activity In Vitro Assay of Antibacterial Activity
(§2) Representative compounds of the invention were assayed in vitro for antibacterial activity. The susceptibilities of aerobic, nonfastidious species were determined visually by broth microdilution as described by the National Committee for Clinical Laboratory Standards (NCCLS) (National Committee for Clinical Laboratory Standards. 1997. Methods for dilution antimicrobial susceptibility tests for bacteria that grow aerobically. Approved standard M7-A4. National Committee for Clinical Laboratory Standards. Wayne, Pa.). In brief, serial two-fold dilutions of test compounds were made in cation-adjusted Mueller Hinton broth at two-times the final concentration. Inocula were prepared from overnight cultures of test strains. Tests were inoculated with a suspension of bacteria in Mueller Hinton broth to achieve a final density of approximately 5×10^5 CFU/mL. Tests were incubated at 35° C. in ambient air for 16 to 20 hr. Minimum Inhibitory Concentrations (MICs) were determined as the lowest drug concentration completely inhibiting growth. Ciprofloxacin was included as a control. For testing S. pneumoniae, the cation-adjusted Mueller Hinton broth was supplemented with 3% lysed horse blood and the incubation period was extended to 20 to 24 hr. For testing H. influenzae, the cation-adjusted Mueller Hinton broth was supplemented with 5 g/L yeast extract, […] and 15 mg/L NAD and incubation was extended to 20 to 24 hr..

Escherichia coli JUHL = details: Table 2, Assay B, cation-adjusted Mueller Hinton broth, 35° C., 16 to 20 hr; code D = Escherichia coli JUHL; unit assumed
Description: as §1, §2

[2] = system: Streptococcus pneumoniae ATCC 6303; details: Table 2, Assay B, Mueller Hinton broth with 3% lysed horse blood, 20 to 24 hr; code F = Streptococcus pneumoniae ATCC 6303; unit assumed
Description: as §1, §2

[3] = system: Haemophilus influenzae DILL AMP R; details: Table 2, Assay B, Mueller Hinton broth with yeast extract, hematin and NAD, 20 to 24 hr; code E = Haemophilus influenzae DILL AMP R; unit assumed
Description: as §1, §2

[4] = system: Staphylococcus aureus ATCC 6538P; details: Table 2, Assay B, cation-adjusted Mueller Hinton broth, 35° C., 16 to 20 hr; code A = Staphylococcus aureus ATCC 6538P; unit assumed
Description: as §1, §2

Structure (SMILES): COc1c(-c2cc3c(s2)CCC(=NO)C3)ccc2c(=O)c(C(=O)O)cn(C3CC3)c12 [Example 55, 1-cyclopropyl-7-((5E/Z)-5-(hydroxyimino)-4,5,6,7-tetrahydro-1-benzothien-2-yl)-8-methoxy-4-oxo-1,4-dihydro-3-quinolinecarboxylic acid]
- Antibacterial Activity (MIC's), B [1]: 0.125 µg/mL
- Antibacterial Activity (MIC's), D (Escherichia coli JUHL): 0.5 µg/mL
- Antibacterial Activity (MIC's), F [2]: 0.125 µg/mL
- Antibacterial Activity (MIC's), E [3]: 0.06 µg/mL
- Antibacterial Activity (MIC's), A [4]: ≤ 0.004 µg/mL

Structure (SMILES): Cl.NC1CCCc2cc(-c3cc4c(cc3F)c(=O)c(C(=O)O)cn4C3CC3)sc21 (stereo not shown) [Example 310, 7-(7-amino-4,5,6,7-tetrahydro-1-benzothien-2-yl)-1-cyclopropyl-6-fluoro-4-oxo-1,4-dihydroquinoline-3-carboxylic acid hydrochloride]
- Antibacterial Activity (MIC's), B [1]: 0.015 µg/mL
- Antibacterial Activity (MIC's), D (Escherichia coli JUHL): 0.015 µg/mL
- Antibacterial Activity (MIC's), F [2]: 0.008 µg/mL
- Antibacterial Activity (MIC's), E [3]: 0.015 µg/mL
- Antibacterial Activity (MIC's), A [4]: 0.008 µg/mL

Structure (SMILES): CNC1CCCc2sc(-c3ccc4c(=O)c(C(=O)O)cn(C5CC5)c4c3OC(F)F)cc21 (stereo not shown) [Example 107, 1-cyclopropyl-8-(difluoromethoxy)-7-(4-(methylamino)-4,5,6,7-tetrahydro-1-benzothien-2-yl)-4-oxo-1,4-dihydro-3-quinolinecarboxylic acid hydrochloride]
- Antibacterial Activity (MIC's), B [1]: 0.5 µg/mL
- Antibacterial Activity (MIC's), D (Escherichia coli JUHL): 0.25 µg/mL
- Antibacterial Activity (MIC's), F [2]: 0.06 µg/mL
- Antibacterial Activity (MIC's), E [3]: 0.06 µg/mL
- Antibacterial Activity (MIC's), A [4]: 0.06 µg/mL

Structure (SMILES): COc1c(-c2cc3c(s2)C(N)C(F)(F)CC3)ccc2c(=O)c(C(=O)O)cn(C3CC3)c12.Cl (stereo not shown) [Example 244, 7-(7-amino-6,6-difluoro-4,5,6,7-tetrahydro-1-benzothien-2-yl)-1-cyclopropyl-8-methoxy-4-oxo-1,4-dihydro-3-quinolinecarboxylic acid hydrochloride]
- Antibacterial Activity (MIC's), B [1]: 0.125 µg/mL
- Antibacterial Activity (MIC's), D (Escherichia coli JUHL): 1 µg/mL
- Antibacterial Activity (MIC's), F [2]: 1 µg/mL
- Antibacterial Activity (MIC's), E [3]: 0.06 µg/mL
- Antibacterial Activity (MIC's), A [4]: ≤ 0.004 µg/mL

Structure (SMILES): Nc1c(F)c(-c2cc3c(s2)C(O)CCC3)c(F)c2c1c(=O)c(C(=O)O)cn2C1CC1 (stereo not shown) [Example 319, 5-amino-1-cyclopropyl-6,8-difluoro-7-(7-hydroxy-4,5,6,7-tetrahydro-1-benzothien-2-yl)-4-oxo-1,4-dihydroquinoline-3-carboxylic acid]
- Antibacterial Activity (MIC's), B [1]: 0.06 µg/mL
- Antibacterial Activity (MIC's), D (Escherichia coli JUHL): 0.06 µg/mL
- Antibacterial Activity (MIC's), F [2]: 0.03 µg/mL
- Antibacterial Activity (MIC's), E [3]: 0.015 µg/mL
- Antibacterial Activity (MIC's), A [4]: ≤ 0.004 µg/mL

Structure (SMILES): COc1c(-c2cc3c(s2)CCCC3NCc2ccccc2)ccc2c(=O)c(C(=O)O)cn(C3CC3)c12.Cl (stereo not shown) [Example 97, 7-(4-(benzylamino)-4,5,6,7-tetrahydro-1-benzothien-2-yl)-1-cyclopropyl-8-methoxn-4-oxo-1,4-dihydro-3-quinolinecarboxylic acid hydrochloride]
- Antibacterial Activity (MIC's), B [1]: 0.5 µg/mL
- Antibacterial Activity (MIC's), D (Escherichia coli JUHL): 1 µg/mL
- Antibacterial Activity (MIC's), F [2]: 0.5 µg/mL
- Antibacterial Activity (MIC's), E [3]: 0.25 µg/mL
- Antibacterial Activity (MIC's), A [4]: 0.125 µg/mL

Structure (SMILES): O=C(O)c1cn(C2CC2)c2c(Cl)c(-c3cc4c(s3)C(O)CCC4)ccc2c1=O (stereo not shown) [Example 315, 8-chloro-1-cyclopropyl-7-(7-hydroxy-4,5,6,7-tetrahydro-1-benzothien-2-yl)-4-oxo-1,4-dihydroquinoline-3-carboxylic acid]
- Antibacterial Activity (MIC's), B [1]: 0.06 µg/mL
- Antibacterial Activity (MIC's), D (Escherichia coli JUHL): 0.125 µg/mL
- Antibacterial Activity (MIC's), F [2]: 0.125 µg/mL
- Antibacterial Activity (MIC's), E [3]: 0.008 µg/mL
- Antibacterial Activity (MIC's), A [4]: 0.008 µg/mL

Structure (SMILES): CC1(C)CCc2cc(-c3ccc4c(=O)c(C(=O)O)cn(C5CC5)c4c3Cl)sc2C1N.Cl (stereo not shown) [Example 347, 7-(7-amino-6,6-dimethyl-4,5,6,7-tetrahydro-1-benzothien-2-yl)-8-chloro-1-cyclopropyl-4-oxo-1,4-dihydroquinoline-3-carboxylic acid hydrochloride]
- Antibacterial Activity (MIC's), B [1]: 0.25 µg/mL
- Antibacterial Activity (MIC's), D (Escherichia coli JUHL): 0.25 µg/mL
- Antibacterial Activity (MIC's), F [2]: 0.125 µg/mL
- Antibacterial Activity (MIC's), E [3]: 0.06 µg/mL
- Antibacterial Activity (MIC's), A [4]: 0.03 µg/mL

Structure (SMILES): COc1c(-c2cc3c(s2)CCCC3N(C)C)ccc2c(=O)c(C(=O)O)cn(C3CC3)c12.Cl (stereo not shown) [Example 83, 1-cyclopropyl-7-(4-(dimethylamino)-4,5,6,7-tetrahydro-1-benzothien-2-yl)-8-methoxy-4-oxo-1,4-dihydro-3-quinolinecarboxylic acid hydrochloride]
- Antibacterial Activity (MIC's), B [1]: 0.5 µg/mL
- Antibacterial Activity (MIC's), D (Escherichia coli JUHL): 0.5 µg/mL
- Antibacterial Activity (MIC's), F [2]: 0.125 µg/mL
- Antibacterial Activity (MIC's), E [3]: 0.25 µg/mL
- Antibacterial Activity (MIC's), A [4]: 0.125 µg/mL

Structure (SMILES): CON=C1CCCc2sc(-c3ccc4c(=O)c(C(=O)O)cn(C5CC5)c4c3OC)cc21 [Example 64, 1-cyclopropyl-8-methoxy-7-((4E/Z)-4-(methoxyimino)-4,5,6,7-tetrahydro-1-benzothien-2-yl)-4-oxo-1,4-dihydro-3-quinolinecarboxylic acid]
- Antibacterial Activity (MIC's), B [1]: 0.25 µg/mL
- Antibacterial Activity (MIC's), D (Escherichia coli JUHL): 2 µg/mL
- Antibacterial Activity (MIC's), F [2]: 0.125 µg/mL
- Antibacterial Activity (MIC's), E [3]: 0.25 µg/mL
- Antibacterial Activity (MIC's), A [4]: 0.03 µg/mL

Structure (SMILES): Cl.NC1CCCc2cc(-c3nc4c(cc3F)c(=O)c(C(=O)O)cn4C3CC3)sc21 (stereo not shown) [Example 271, 7-(7-amino-4,5,6,7-tetrahydro-1-benzothien-2-yl)-1-cyclopropyl-6-fluoro-4-oxo-1,4-dihydro-1,8-naphthyridine-3-carboxylic acid hydrochloride]
- Antibacterial Activity (MIC's), B [1]: 0.015 µg/mL
- Antibacterial Activity (MIC's), D (Escherichia coli JUHL): ≤ 0.004 µg/mL
- Antibacterial Activity (MIC's), F [2]: ≤ 0.004 µg/mL
- Antibacterial Activity (MIC's), E [3]: ≤ 0.004 µg/mL
- Antibacterial Activity (MIC's), A [4]: ≤ 0.004 µg/mL

Structure (SMILES): CNC1CCCc2sc(-c3c(F)cc4c(=O)c(C(=O)O)cn(C5CC5)c4c3C)cc21.Cl (stereo not shown) [Example 317, 1-cyclopropyl-6-fluoro-8-methyl-7-(4-(methylamino)-4,5,6,7-tetrahydro-1-benzothien-2-yl)-4-oxo-1,4-dihydroquinoline-3-carboxylic acid hydrochloride]
- Antibacterial Activity (MIC's), B [1]: 0.06 µg/mL
- Antibacterial Activity (MIC's), D (Escherichia coli JUHL): 0.06 µg/mL
- Antibacterial Activity (MIC's), F [2]: 0.03 µg/mL
- Antibacterial Activity (MIC's), E [3]: 0.03 µg/mL
- Antibacterial Activity (MIC's), A [4]: 0.03 µg/mL

Structure (SMILES): Cc1c(F)c(-c2cc3c(s2)C(N)CCC3)nc2c1c(=O)c(C(=O)O)cn2C1CC1.Cl (stereo not shown) [Example 371, 7-(7-amino-4,5,6,7-tetrahydro-1-benzothien-2-yl)-1-cyclopropyl-6-fluoro-5-methyl-4-oxo-1,4-dihydro-1,8-naphthyridine-3-carboxylic acid hydrochloride]
- Antibacterial Activity (MIC's), B [1]: 0.03 µg/mL
- Antibacterial Activity (MIC's), D (Escherichia coli JUHL): 0.06 µg/mL
- Antibacterial Activity (MIC's), F [2]: ≤ 0.004 µg/mL
- Antibacterial Activity (MIC's), E [3]: 0.03 µg/mL
- Antibacterial Activity (MIC's), A [4]: ≤ 0.004 µg/mL

Structure (SMILES): Cl.NC1CCCc2cc(-c3c(F)cc4c(=O)c(C(=O)O)cn(C5CC5)c4c3F)sc21 (stereo not shown) [Example 309, 7-(7-amino-4,5,6,7-tetrahydro-1-benzothien-2-yl)-1-cyclopropyl-6,8-difluoro-4-oxo-1,4-dihydroquinoline-3-carboxylic acid hydrochloride]
- Antibacterial Activity (MIC's), B [1]: 0.06 µg/mL
- Antibacterial Activity (MIC's), D (Escherichia coli JUHL): 0.03 µg/mL
- Antibacterial Activity (MIC's), F [2]: 0.06 µg/mL
- Antibacterial Activity (MIC's), E [3]: 0.015 µg/mL
- Antibacterial Activity (MIC's), A [4]: 0.015 µg/mL
